Patent publication US7371560B2, “Photosynthetic hydrogen production” (priority 2003, dated 2008)

Tests used:
[1] = system: Chlamydomonas reinhardtii Stm6 cultures; assay: H2 production ± CCCP, Clark type hydrogen electrode, Stm6 cultures; format: cell-based
Procedure: (§1) H2 concentrations were measured in the liquid phase and the gaseous head space above, both for WT and Stm6 cultures (cell density of OD750 nm=0.8). Dissolved H2 concentrations were measured in 1 liter dark-adapted cell cultures in TAP medium replete with, or depleted of, sulfur using a Clark type hydrogen electrode (Unisense PA2000, Denmark) upon white light illumination. H2 concentrations in the presence and absence of 5 μM carbonylcyanide m-chlorophenylhydrazone (CCCP) were measured using dark adapted cultures (1 h) before and after illumination (white light, 300 μmol m^−2·s^−1) The H2 concentration in the gaseous head space was measured using a mass spectrometer (Delta Finnigan MAT). Cell cultures were dark-adapted for 30 min in a weak vacuum to deplete the medium and headspace of O2 and H2, prior to illumination with continuous or pulsed (3.3 Hz frequency, 5 μs flashes; light intensity range of 15-3000 μmol·m^−2·s^−1) white light.

[2] = system: Chlamydomonas reinhardtii WT cultures; assay: H2 production ± CCCP, Clark type hydrogen electrode, WT cultures; format: cell-based; conditions: CCCP added to WT culture
Procedure: as §1

## N#CC(C#N)=NNc1cccc(Cl)c1 [CCCP, carbonylcyanide m-chlorophenylhydrazone]
[1]; 5 μM CCCP, Stm6 culture
  period of increased H2 production with CCCP: at least 30 min
[1]; 5 μM CCCP, dark adapted cultures (1 h), white light 300 μmol m^−2·s^−1, relative to WT
  H2 production rate with CCCP, higher than in the WT: ~1500%
[1]; Stm6 in the presence of CCCP, relative to WT
  H2 production rate in the presence of CCCP, times higher than the WT: 15 ×
[2]
  effect of CCCP on H2 production: hardly any effect
